Reference: paper PMC10301922, “Anti-Oxidant, Anti-Mutagenic Activity and Safety Evaluation of Antrocin” (Toxics, 2023)

How the values were obtained:
Sprague Dawley rats = experiment: 28-day oral toxicity test: absolute organ weight
[1] = system: Salmonella typhimurium TA98; experiment: Ames test (plate incorporation), TA98
[2] = 28-day oral toxicity test: body weight; assay type: in vivo
ICR male mice = experiment: In vivo mammalian erythrocyte micronucleus test
[3] = system: Salmonella typhimurium TA1535; experiment: Ames test (plate incorporation), TA1535
[4] = system: Salmonella typhimurium TA1535; experiment: Antimutagenicity test, TA1535
[5] = Ferric reducing ability of plasma (FRAP); conditions: 10 mg/mL antrocin
Protocol: The following methodology describes the FRAP assay: Add 10 µL of sample to a 96-well plate. For each sample, a parallel sample was prepared as a sample background control. Add 4 µL of FRAP Positive Control to each well and make up to 10 µL with FRAP Assay Buffer. For standard curve preparation, add 0, 2, 4, 6, 8, and 10 µL of a 2 mM ferrous standard solution to the wells of a 96-well plate to generate 0, 4, 8, 12, 16, and 20 nmol/well of ferrous iron, respectively. Adjust the volume to 10 µL/well with FRAP Assay Buffer. Mix sufficient reagents for the number of tests to be performed, including: Add 190 µL of Reaction Mix to the wells of the standard curve, positive control, and test samples. Add 190 µL Background Control Mix to the sample background control wells and mix well. After 60 min of reaction at 37 °C, measure the absorbance at 594 nm. Subtract 0 nmol standard readings from all standard curve readings to draw a ferrous standard curve. If the sample background control is significant, subtract the background control reading from its paired sample reading. Apply the sample OD value to the ferrous standard curve to obtain the reduced ferrous ion B nmol generated during the reaction.
Use the following calculation to determine the mM ferrous equivalence of the sample.
Sample FRAP or mM ferrous equivalents = B × D/V = nmol/µL(2) […]

[6] = female rats, 7.5 mg/kg oral 28 d
[7] = female rats, 37.5 mg/kg oral 28 d
[8] = male rats, 37.5 mg/kg oral 28 d
[9] = TA1535, with S9, mutagen 2-AA 25 μg/plate, antrocin 0.025 mg/plate
[10] = TA1535, with S9, mutagen 2-AA 25 μg/plate, antrocin 0.05 mg/plate
[11] = TA1535, with S9, mutagen 2-AA 25 μg/plate, antrocin […]
[12] = TA1535, without S9, mutagen sodium azide 5 μg/plate, antrocin 0.025 mg/plate
[13] = TA1535, without S9, mutagen sodium azide 5 μg/plate, antrocin 0.05 mg/plate
[14] = TA1535, without S9, mutagen sodium azide 5 μg/plate, antrocin […]

C=C1CC[C@H]2C(C)(C)CCC[C@@]23C(=O)OC[C@@H]13 [Antrocin, (-)-Antrocin]
Testis/Ovary (Sprague Dawley rats; female rats (ovary), 7.5 mg/kg oral 28 d): 0.07 ± 0.02 g
Testis/Ovary (Sprague Dawley rats; female rats (ovary), 37.5 mg/kg oral 28 d): 0.10 ± 0.01 g
Adrenal (Sprague Dawley rats; [6]): 0.05 ± 0.01 g
Brain (Sprague Dawley rats; [6]): 1.9 ± 0.1 g
Heart (Sprague Dawley rats; [6]): 0.9 ± 0.1 g
Kidney (Sprague Dawley rats; [6]): 1.8 ± 0.1 g
Liver (Sprague Dawley rats; [6]): 8.5 ± 0.7 g
Spleen (Sprague Dawley rats; [6]): 0.4 ± 0.1 g
Thymus (Sprague Dawley rats; [6]): 0.4 ± 0.1 g
Adrenal (Sprague Dawley rats; [7]): 0.05 ± 0.01 g
Brain (Sprague Dawley rats; [7]): 2.0 ± 0.1 g
Heart (Sprague Dawley rats; [7]): 1.0 ± 0.1 g
Kidney (Sprague Dawley rats; [7]): 1.7 ± 0.1 g
Liver (Sprague Dawley rats; [7]): 7.8 ± 0.5 g
Spleen (Sprague Dawley rats; [7]): 0.4 ± 0.0 g
Thymus (Sprague Dawley rats; [7]): 0.4 ± 0.1 g
Testis/Ovary (Sprague Dawley rats; male rats (testis), 7.5 mg/kg oral 28 d): 3.1 ± 0.2 g
Testis/Ovary (Sprague Dawley rats; male rats (testis), 37.5 mg/kg oral 28 d): 3.2 ± 0.2 g
Adrenal (Sprague Dawley rats; male rats, 7.5 mg/kg oral 28 d): 0.05 ± 0.01 g
Brain (Sprague Dawley rats; male rats, 7.5 mg/kg oral 28 d): 2.1 ± 0.2 g
Heart (Sprague Dawley rats; male rats, 7.5 mg/kg oral 28 d): 1.3 ± 0.2 g
Kidney (Sprague Dawley rats; male rats, 7.5 mg/kg oral 28 d): 2.8 ± 0.4 g
Liver (Sprague Dawley rats; male rats, 7.5 mg/kg oral 28 d): 12.2 ± 1.9 g
Spleen (Sprague Dawley rats; male rats, 7.5 mg/kg oral 28 d): 0.6 ± 0.1 g
Thymus (Sprague Dawley rats; male rats, 7.5 mg/kg oral 28 d): 0.6 ± 0.1 g
Adrenal (Sprague Dawley rats; [8]): 0.06 ± 0.00 g
Brain (Sprague Dawley rats; [8]): 2.0 ± 0.1 g
Heart (Sprague Dawley rats; [8]): 1.3 ± 0.2 g
Kidney (Sprague Dawley rats; [8]): 2.7 ± 0.2 g
Liver (Sprague Dawley rats; [8]): 11.1 ± 1.2 g
Spleen (Sprague Dawley rats; [8]): 0.6 ± 0.1 g
Thymus (Sprague Dawley rats; [8]): 0.4 ± 0.1 g
Number of Revertant ([1]; TA98, with S9, 0.003125 mg/plate): 33.7 ± 1.2 Colony/Plate
Number of Revertant ([1]; TA98, with S9, 0.00625 mg/plate): 32.0 ± 1.6 Colony/Plate
Number of Revertant ([1]; TA98, with S9, 0.025 mg/plate): 34.3 ± 3.3 Colony/Plate
Number of Revertant ([1]; TA98, with S9, 0.05 mg/plate): 36.0 ± 4.3 Colony/Plate
Number of Revertant ([1]; TA98, without S9, 0.00625 mg/plate): 246.0 ± 16.4 Colony/Plate
Number of Revertant ([1]; TA98, without S9, 0.025 mg/plate): 278.3 ± 4.5 Colony/Plate
Number of Revertant ([1]; TA98, without S9, 0.05 mg/plate): 270.0 ± 11.2 Colony/Plate
bacterial mutagenicity ([1]; preliminary tests, TA98, 100 μg/plate): no bacterial mutagenicity
Body Weight ([2]; female rats, 7.5 mg/kg oral, 0-Day): 163.3 ± 6.3 g
Body Weight ([2]; female rats, 7.5 mg/kg oral, 7-Day): 190.0 ± 9.0 g
Body Weight Gain ([2]; female rats, 7.5 mg/kg oral, 7-Day (7th − 0th)): 26.7 ± 5.6 g
Body Weight ([2]; female rats, 7.5 mg/kg oral, 14-Day): 212.9 ± 12.1 g
Body Weight Gain ([2]; female rats, 7.5 mg/kg oral, 14-Day (14th − 7th)): 22.8 ± 6.0 g
Body Weight ([2]; female rats, 7.5 mg/kg oral, 21-Day): 229.3 ± 14.6 g
Body Weight Gain ([2]; female rats, 7.5 mg/kg oral, 21-Day (21st − 14th)): 16.4 ± 5.2 g
Body Weight ([2]; female rats, 7.5 mg/kg oral, 28-Day): 246.6 ± 21.7 g
Body Weight Gain ([2]; female rats, 7.5 mg/kg oral, 28-Day (28th − 21st)): 17.3 ± 7.9 g
Body Weight ([2]; female rats, 37.5 mg/kg oral, 0-Day): 162.4 ± 6.3 g
Body Weight ([2]; female rats, 37.5 mg/kg oral, 7-Day): 188.5 ± 7.9 g
Body Weight Gain ([2]; female rats, 37.5 mg/kg oral, 7-Day (7th − 0th)): 26.1 ± 4.1 g
Body Weight ([2]; female rats, 37.5 mg/kg oral, 14-Day): 212.0 ± 7.0 g
Body Weight Gain ([2]; female rats, 37.5 mg/kg oral, 14-Day (14th − 7th)): 23.4 ± 3.6 g
Body Weight ([2]; female rats, 37.5 mg/kg oral, 21-Day): 230.1 ± 9.7 g
Body Weight Gain ([2]; female rats, 37.5 mg/kg oral, 21-Day (21st − 14th)): 18.1 ± 5.0 g
Body Weight ([2]; female rats, 37.5 mg/kg oral, 28-Day): 241.7 ± 13.6 g
Body Weight Gain ([2]; female rats, 37.5 mg/kg oral, 28-Day (28th − 21st)): 11.6 ± 6.3 g
Body Weight ([2]; male rats, 7.5 mg/kg oral, 0-Day): 181.4 ± 5.1 g
Body Weight ([2]; male rats, 7.5 mg/kg oral, 7-Day): 237.9 ± 13.6 g
Body Weight Gain ([2]; male rats, 7.5 mg/kg oral, 7-Day (7th − 0th)): 56.5 ± 10.1 g
Body Weight ([2]; male rats, 7.5 mg/kg oral, 14-Day): 295.0 ± 22.5 g
Body Weight Gain ([2]; male rats, 7.5 mg/kg oral, 14-Day (14th − 7th)): 57.1 ± 8.9 g
Body Weight ([2]; male rats, 7.5 mg/kg oral, 21-Day): 349.5 ± 34.3 g
Body Weight Gain ([2]; male rats, 7.5 mg/kg oral, 21-Day (21st − 14th)): 54.5 ± 12.4 g
Body Weight ([2]; male rats, 7.5 mg/kg oral, 28-Day): 389.6 ± 46.6 g
Body Weight Gain ([2]; male rats, 7.5 mg/kg oral, 28-Day (28th − 21st)): 40.1 ± 12.5 g
Body Weight ([2]; male rats, 37.5 mg/kg oral, 0-Day): 183.9 ± 9.0 g
Body Weight ([2]; male rats, 37.5 mg/kg oral, 7-Day): 235.6 ± 9.6 g
Body Weight Gain ([2]; male rats, 37.5 mg/kg oral, 7-Day (7th − 0th)): 51.8 ± 4.7 g
Body Weight ([2]; male rats, 37.5 mg/kg oral, 14-Day): 289.0 ± 17.3 g
Body Weight Gain ([2]; male rats, 37.5 mg/kg oral, 14-Day (14th − 7th)): 53.4 ± 13.9 g
Body Weight ([2]; male rats, 37.5 mg/kg oral, 21-Day): 332.3 ± 21.0 g
Body Weight Gain ([2]; male rats, 37.5 mg/kg oral, 21-Day (21st − 14th)): 43.2 ± 7.7 g
Body Weight ([2]; male rats, 37.5 mg/kg oral, 28-Day): 367.6 ± 30.6 g
Body Weight Gain ([2]; male rats, 37.5 mg/kg oral, 28-Day (28th − 21st)): 35.3 ± 12.9 g
Mn-RETs/1000RETs (‰) (ICR male mice; 48 h, 100 mg/kg oral gavage): 2.2 ± 0.9 ‰
RETs/1000RBCs (‰) (ICR male mice; 48 h, 100 mg/kg oral gavage): 20.4 ± 2.4 ‰
frequencies of micronuclei (ICR male mice; 48 h, 250 mg/kg): 18.8 ± 1.9 ‰
Mn-RETs/1000RETs (‰) (ICR male mice; 48 h, 250 mg/kg oral gavage): 1.5 ± 0.2 ‰
RETs/1000RBCs (‰) (ICR male mice; 48 h, 250 mg/kg oral gavage): 18.8 ± 1.9 ‰
frequencies of micronuclei (ICR male mice; 48 h, […]): 20.8 ± 2.5 ‰
frequencies of micronuclei (ICR male mice; 72 h, 100 mg/kg): 31.0 ± 6.1 ‰
Mn-RETs/1000RETs (‰) (ICR male mice; 72 h, 100 mg/kg oral gavage): 3.0 ± 1.0 ‰
RETs/1000RBCs (‰) (ICR male mice; 72 h, 100 mg/kg oral gavage): 31.0 ± 6.1 ‰
frequencies of micronuclei (ICR male mice; 72 h, 250 mg/kg): 26.5 ± 4.6 ‰
Mn-RETs/1000RETs (‰) (ICR male mice; 72 h, 250 mg/kg oral gavage): 2.2 ± 0.5 ‰
RETs/1000RBCs (‰) (ICR male mice; 72 h, 250 mg/kg oral gavage): 26.5 ± 4.6 ‰
frequencies of micronuclei (ICR male mice; 72 h, […]): 28.9 ± 5.0 ‰
frequency of micronuclei versus control (ICR male mice; antrocin-treated groups after 48 or 72 h): no significant changes
Number of Revertant ([3]; TA1535, with S9, 0.003125 mg/plate): 17.3 ± 0.5 Colony/Plate
Number of Revertant ([3]; TA1535, with S9, 0.00625 mg/plate): 15.7 ± 6.1 Colony/Plate
Number of Revertant ([3]; TA1535, with S9, 0.025 mg/plate): 18.0 ± 1.6 Colony/Plate
Number of Revertant ([3]; TA1535, with S9, 0.05 mg/plate): 14.0 ± 2.4 Colony/Plate
Number of Revertant ([3]; TA1535, without S9, 0.003125 mg/plate): 11.7 ± 2.4 Colony/Plate
Number of Revertant ([3]; TA1535, without S9, 0.00625 mg/plate): 14.7 ± 4.0 Colony/Plate
Number of Revertant ([3]; TA1535, without S9, 0.025 mg/plate): 10.7 ± 1.2 Colony/Plate
Number of Revertant ([3]; TA1535, without S9, 0.05 mg/plate): 12.7 ± 2.9 Colony/Plate
Inhibition (%) of mutagenicity [4, 9]: 20.49%
Number of Revertant [4, 9]: 217.3 ± 10.2 Colony/Plate
Inhibition (%) of mutagenicity [4, 10]: 33.25%
Number of Revertant [4, 10]: 184.3 ± 3.8 Colony/Plate
Inhibition (%) of mutagenicity [4, 11]: 8.63%
Number of Revertant [4, 11]: 248.0 ± 9.5 Colony/Plate
Inhibition (%) of mutagenicity [4, 12]: 16.74%
Number of Revertant [4, 12]: 1095.0 ± 28.0 Colony/Plate
Inhibition (%) of mutagenicity [4, 13]: 25.80%
Number of Revertant [4, 13]: 977.0 ± 18.1 Colony/Plate
Inhibition (%) of mutagenicity [4, 14]: 4.40%
Number of Revertant [4, 14]: 1255.7 ± 47.7 Colony/Plate
Ferric Reducing Ability of Plasma (mM Ferrous Equivalent) [5]: 0.218 ± 0.004 mM Ferrous Equivalent
